Data as given in paper PMC11876601 (Molecular Systems Biology, 2025).
Where two headings read alike, the source gives them in different places.

Tests used:
Assay in all cases: cells
Colo-357 [1] = test system: Colo-357; parameters: ATPlite luminescence viability of PDAC cell lines, 11-dose single-agent curves, 4-parameter fit; settings: Homo sapiens, COLO357, 72 h, read-out: EC50 [nM]
How it was run: (§1)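 cells (1000 to 5000 per well) seeded 24 h before drug addition in a combination screen at 0.2% final DMSO. Controls were drug-free wells (negative) and 5 µM staurosporine (positive).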

Dan-G [2] = test system: Dan-G; parameters: ATPlite luminescence viability of PDAC cell lines, 11-dose single-agent curves, 4-parameter fit; settings: 72 h, read-out: EC50 [nM]
How it was run: as §1

HPDE [3] = test system: HPDE; parameters: ATPlite luminescence viability of PDAC cell lines, 11-dose single-agent curves, 4-parameter fit; settings: HPDE, 72 h, read-out: EC50 [nM]
How it was run: as §1

AsPC-1 [4] = test system: AsPC-1; parameters: Viability of PDAC cell lines, ATPlite luminescence, 11-dose single-agent curve fit; settings: Homo sapiens, ASPC1, 72 h, read-out: EC50 [nM]
How it was run: (§2)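 cells (1000 to 5000 per well) seeded 24 h before drug addition in a screen at 0.2% final DMSO. Controls were drug-free wells (negative) and 5 µM staurosporine (positive).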

BxPC-3 [5] = test system: BxPC-3; parameters: Viability of PDAC cell lines, ATPlite luminescence, 11-dose single-agent curve fit; settings: Homo sapiens, BXPC-3, 72 h, read-out: EC50 [nM]
How it was run: as §2

Capan-1 [6] = test system: Capan-1; parameters: Viability of PDAC cell lines, ATPlite luminescence, 11-dose single-agent curve fit; settings: Homo sapiens, CAPAN-1, 72 h, read-out: EC50 [nM]
How it was run: as §2

FAMPAC [7] = test system: FAMPAC; parameters: Viability of PDAC cell lines, ATPlite luminescence, 11-dose single-agent curve fit; settings: 72 h, read-out: EC50 [nM]
How it was run: as §2

HuP-T4 = test system: HuP-T4; parameters: Viability of PDAC cell lines, ATPlite luminescence, 11-dose single-agent curve fit; settings: Homo sapiens, HuP-T4, 72 h, read-out: EC50 [nM]
How it was run: as §2

MiaPaCa-2 [8] = test system: MiaPaCa-2; parameters: Viability of PDAC cell lines, ATPlite luminescence, 11-dose single-agent curve fit; settings: Homo sapiens, MIA PaCa-2, 72 h, read-out: EC50 [nM]
How it was run: as §2

PANC-1 = test system: PANC-1; parameters: Viability of PDAC cell lines, ATPlite luminescence, 11-dose single-agent curve fit; settings: Homo sapiens, PANC-1, 72 h, read-out: EC50 [nM]
How it was run: as §2

PSN-1 [9] = test system: PSN-1; parameters: Viability of PDAC cell lines, ATPlite luminescence, 11-dose single-agent curve fit; settings: Homo sapiens, PSN1, 72 h, read-out: EC50 [nM]
How it was run: as §2

PaTu-8988-T [10] = test system: PaTu-8988-T; parameters: Viability of PDAC cell lines, ATPlite luminescence, 11-dose single-agent curve fit; settings: Homo sapiens, PaTu 8988t, 72 h, read-out: EC50 [nM]
How it was run: as §2

Suit2-07 [11] = test system: Suit2-07; parameters: Viability of PDAC cell lines, ATPlite luminescence, 11-dose single-agent curve fit; settings: 72 h, read-out: EC50 [nM]
How it was run: as §2

AsPC-1 [12] = test system: AsPC-1; parameters: ATPlite luminescence viability of PDAC cell lines, 11-dose single-agent curves, 4-parameter fit; settings: Homo sapiens, ASPC1, 72 h, read-out: EC50 [nM]
How it was run: as §1

BxPC-3 [13] = test system: BxPC-3; parameters: ATPlite luminescence viability of PDAC cell lines, 11-dose single-agent curves, 4-parameter fit; settings: Homo sapiens, BXPC-3, 72 h, read-out: EC50 [nM]
How it was run: as §1

FAMPAC [14] = test system: FAMPAC; parameters: ATPlite luminescence viability of PDAC cell lines, 11-dose single-agent curves, 4-parameter fit; settings: 72 h, read-out: EC50 [nM]
How it was run: as §1

MiaPaCa-2 [15] = test system: MiaPaCa-2; parameters: ATPlite luminescence viability of PDAC cell lines, 11-dose single-agent curves, 4-parameter fit; settings: Homo sapiens, MIA PaCa-2, 72 h, read-out: EC50 [nM]
How it was run: as §1

PSN-1 [16] = test system: PSN-1; parameters: ATPlite luminescence viability of PDAC cell lines, 11-dose single-agent curves, 4-parameter fit; settings: Homo sapiens, PSN1, 72 h, read-out: EC50 [nM]
How it was run: as §1

PaTu-8988-T [17] = test system: PaTu-8988-T; parameters: ATPlite luminescence viability of PDAC cell lines, 11-dose single-agent curves, 4-parameter fit; settings: Homo sapiens, PaTu 8988t, 72 h, read-out: EC50 [nM]
How it was run: as §1

Suit2-07 [18] = test system: Suit2-07; parameters: ATPlite luminescence viability of PDAC cell lines, 11-dose single-agent curves, 4-parameter fit; settings: 72 h, read-out: EC50 [nM]
How it was run: as §1

Dan-G [19] = test system: Dan-G; parameters: Viability of PDAC cell lines, ATPlite luminescence, 11-dose single-agent curve fit; settings: 72 h, read-out: EC50 [nM]
How it was run: as §2

Capan-1 [20] = test system: Capan-1; parameters: ATPlite luminescence viability of PDAC cell lines, 11-dose single-agent curves, 4-parameter fit; settings: Homo sapiens, CAPAN-1, 72 h, read-out: EC50 [nM]
How it was run: as §1

HPDE [21] = test system: HPDE; parameters: Viability of PDAC cell lines, ATPlite luminescence, 11-dose single-agent curve fit; settings: HPDE, 72 h, read-out: EC50 [nM]
How it was run: as §2

Colo-357 [22] = test system: Colo-357; parameters: Viability of PDAC cell lines, ATPlite luminescence, 11-dose single-agent curve fit; settings: Homo sapiens, COLO357, 72 h, read-out: EC50 [nM]
How it was run: as §2

Structure (SMILES) | EC50 (Colo-357 [1]) [nM] | EC50 (AsPC-1 [4]) [nM] | EC50 (BxPC-3 [5]) [nM] | EC50 (MiaPaCa-2 [8]) [nM] | EC50 (PANC-1) [nM] | EC50 (BxPC-3 [13]) [nM] | EC50 (MiaPaCa-2 [15]) [nM] | EC50 (Dan-G [2]) [nM] | EC50 (HPDE [3]) [nM] | EC50 (Capan-1 [6]) [nM] | EC50 (FAMPAC [7]) [nM] | EC50 (HuP-T4) [nM] | EC50 (PSN-1 [9]) [nM] | EC50 (PaTu-8988-T [10]) [nM] | EC50 (Suit2-07 [11]) [nM] | EC50 (FAMPAC [14]) [nM] | EC50 (PSN-1 [16]) [nM] | other results
CN(C)CCCOc1ccc(-c2ccc3ncc4c(c3c2)n(C2CCOCC2)c(=O)n4C)cn1 [AZD-0156] | 6410 | – | – | – | > 10000 | 5990 | 1010 | – | 10400 | > 10000 | – | – | – | – | – | 1890 | 3260 | EC50 (AsPC-1 [12]): > 10000 nM; EC50 (PaTu-8988-T [17]): 606 nM; EC50 (Suit2-07 [18]): 1960 nM; EC50 (Dan-G [19]): 4160 nM
C#Cc1cccc(Nc2ncnc3cc4c(cc23)OCCOCCOCCO4)c1 [Icotinib] | 2260 | 416 | 5260 | 1760 | 716 | – | – | 1530 | 1000 | 1900 | 6990 | 0.21 | 42 | 91.9 | 101 | – | – | –
CS(=O)(=O)CCNCc1ccc(-c2ccc3ncnc(Nc4ccc(OCc5cccc(F)c5)c(Cl)c4)c3c2)o1 [Lapatinib] | 815 | > 10000 | 8320 | > 10000 | > 10000 | – | – | 3780 | > 10000 | > 10000 | > 10000 | > 10000 | > 10000 | > 10000 | 7910 | – | – | –

Second part, led by results:

EC50 (Colo-357 [1]) [nM] | EC50 (AsPC-1 [4]) [nM] | EC50 (BxPC-3 [5]) [nM] | EC50 (MiaPaCa-2 [8]) [nM] | EC50 (PANC-1) [nM] | EC50 (BxPC-3 [13]) [nM] | EC50 (MiaPaCa-2 [15]) [nM] | Structure (SMILES) | EC50 (Dan-G [2]) [nM] | EC50 (HPDE [3]) [nM] | EC50 (Capan-1 [6]) [nM] | EC50 (FAMPAC [7]) [nM] | EC50 (HuP-T4) [nM] | EC50 (PSN-1 [9]) [nM] | EC50 (PaTu-8988-T [10]) [nM] | EC50 (Suit2-07 [11]) [nM] | EC50 (FAMPAC [14]) [nM] | EC50 (PSN-1 [16]) [nM] | other results
464 | 515 | 847 | 2570 | 8860 | – | – | COc1cc2ncnc(Nc3cccc(Cl)c3F)c2cc1OC(=O)N1CCN(C)C[C@H]1C [AZD3759] | 445 | 483 | 1200 | 2880 | 2590 | 2560 | 1690 | 1330 | – | – | –
291 | 405 | – | – | 95.6 | 848 | 87 | COc1cc(Nc2ncc3c(n2)-c2ccc(Cl)cc2C(c2c(F)cccc2OC)=NC3)ccc1C(=O)O [Alisertib] | 914 | – | – | – | 64.4 | – | 274 | 272 | 68.6 | 846 | EC50 (Capan-1 [20]): 427 nM; EC50 (HPDE [21]): 2700 nM
> 10000 | 1470 | 794 | 2770 | 4520 | – | – | O=C(Nc1ccc(OC(F)(F)Cl)cc1)c1cnc(N2CC[C@@H](O)C2)c(-c2cc[nH]n2)c1 [Asciminib] | – | – | – | > 10000 | 3860 | 1730 | 1350 | 3.54 | – | – | EC50 (Capan-1 [20]): 3820 nM; EC50 (Dan-G [19]): 7610 nM; EC50 (HPDE [21]): 4830 nM
– | – | – | – | > 10000 | 3060 | 2650 | O=C1CCc2c(Oc3ccc4c(c3)[C@@H]3[C@H](O4)[C@H]3c3nc4cc(C(F)(F)F)ccc4[nH]3)ccnc2N1 [Lifirafenib] | 2000 | 1980 | 9370 | – | 4500 | – | – | – | 2510 | 696 | EC50 (AsPC-1 [12]): 966 nM; EC50 (PaTu-8988-T [17]): 2540 nM; EC50 (Suit2-07 [18]): > 10000 nM; EC50 (Colo-357 [22]): 3500 nM
